Assay results: PMC12051620, “Molecular basis underlying the specificity of an antagonist AA92593 for mammalian melanopsins” (The Journal of Biological Chemistry, 2025)

How the values were obtained:
[1] = tested on: chicken Opn4-1 WT; test: GsX GloSensor assay with Gsα/q11; assay type: cell-based; settings: 16.7 μM AA92593, COS-1 cells
From the text: (§1) The GsX GloSensor assay using Gsα/q11 of Xenopus Opn4x and chicken Opn4-1 detected the light-dependent Gq activation in both non-mammalian-type melanopsins (Fig. 6, A and D). […] The ineffectiveness of AA92593 is consistent with the fact that Phe-94^2.61, Ser-188^ECL2, and Ser-269^6.52 are not conserved among non-mammalian-type melanopsins (Figs. 2A, S2 and S3). If these three residues are important for the antagonistic effect against melanopsins, the introduction of Phe-94^2.61/Ser-188^ECL2/Ser-269^6.52 into the non-mammalian-type melanopsins would make them susceptible to AA92593. As expected, the substitutions of C94^2.61F/T188S^ECL2/A269^6.52S in Xenopus Opn4x and chicken Opn4-1 increased their sensitivity to AA92593 by ∼49% and ∼22%, respectively (Fig. 6, B and E, G–I). Based on the loss-of-function properties of F94^2.61C/S188^ECL2T/S269^6.52A mutants of mammalian-type melanopsins and the gain-of-function properties of C94^2.61F/T188^ECL2S/A269^6.52S mutants of non-mammalian-type melanopsins (Figs. 2G, 3E, 6, G and H), we propose that Phe-94^2.61, Ser-188^ECL2, and Ser-269^6.52 are required for specific interactions with AA92593 as an effective antagonist. […]

[2] = biological target: T1, Xenopus Opn4x WT (Xenopus laevis, UniProt O57422); test: GsX GloSensor assay with Gsα/q11; assay type: cell-based; settings: 16.7 μM AA92593, COS-1 cells
T1 construct: expressed in transfected cells; host or cells: COS-1
From the text: as §1

T1 sequence (O57422 1-334 limits assumed): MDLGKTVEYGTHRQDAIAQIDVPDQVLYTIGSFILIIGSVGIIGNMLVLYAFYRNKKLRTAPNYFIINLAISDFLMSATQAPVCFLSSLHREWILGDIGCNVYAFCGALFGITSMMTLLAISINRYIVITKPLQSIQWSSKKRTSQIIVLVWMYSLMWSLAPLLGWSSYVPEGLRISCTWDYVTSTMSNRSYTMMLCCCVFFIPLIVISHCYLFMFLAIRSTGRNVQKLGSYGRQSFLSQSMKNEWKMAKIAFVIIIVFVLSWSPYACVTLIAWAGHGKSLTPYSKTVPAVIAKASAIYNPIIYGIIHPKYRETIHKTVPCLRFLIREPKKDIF

COc1ccc(S(=O)(=O)N2CCCCC2)cc1C [AA92593]
inhibition of the light-dependent responses [1]: did not effectively inhibit | inhibition of the light-dependent responses [2]: did not effectively inhibit
